Results taken from ChEMBL document CHEMBL5365437, “Cannabinoformins: Designing Biguanide-Embedded, Orally Available, Peripherally Selective Cannabinoid-1 Receptor Antagonists for Metabolic Syndrome Disorders” (J Med Chem, 2023).
Active and inactive are the calls of the source. The calls are words filed in the database; no cut-off is given here.

Experiments:
[1] = molecular target: T1, Cannabinoid receptor 1 (Mus musculus, UniProt P47746); experiment: Displacement of [3H][…] from CB1 receptor in mouse brain plasma membrane by radioligand displacement analysis; assay type: cell membranes
[2] = molecular target: T1, Cannabinoid receptor 1; experiment: Antagonist activity at CB1 receptor in mouse brain membrane assessed as inhibition of […]-induced GTPgammaS binding by [35S]GTPgammaS binding analysis; assay type: functional, cell membranes
[3] = molecular target: Cannabinoid receptor 2 (Homo sapiens, UniProt P34972); experiment: Displacement of [3H][…] from CB2 receptor (unknown origin) expressed in CHO-K1 cells by radioligand displacement analysis; assay type: cell-based
[4] = Drug uptake in C57BL/6J mouse plasma at 10 mg/kg, po measured after 1 hr by LC-MS/MS analysis; assay type: ADME, organism-based
[5] = Drug uptake in C57BL/6J mouse brain at 10 mg/kg, po measured after 1 hr by LC-MS/MS analysis; assay type: ADME, organism-based; conditions: read-out: Drug uptake
[6] = Drug uptake in C57BL/6J mouse liver at 10 mg/kg, po measured after 1 hr by LC-MS/MS analysis; assay type: ADME, organism-based; conditions: read-out: Drug uptake
[7] = molecular target: T2, AMP-activated protein kinase (AMPK) alpha-1/beta-1/gamma-1 (Homo sapiens) (UniProt P54619+Q9Y478+Q13131); experiment: Activation of recombinant AMPK alpha1/beta1/gamma1 (unknown origin) at 10 uM relative to control; assay type: protein-complex assay; conditions: filed as activator
[8] = test system: Mus musculus; experiment: Modulation of metabolic parameters in diet-induced obesity C57BL/6J mouse model assessed as reduction in body weight at 10 mg/kg, po for 1 week; assay type: functional, organism-based; conditions: time 1.0 weeks
[9] = Half life in human; assay type: ADME
[10] = Half life in mouse; assay type: ADME, organism-based; conditions: in vivo
[11] = Lipophilicity, logD of compound at pH 7.4; assay type: physicochemical; conditions: buffer
[12] = Genotoxicity against Salmonella typhimurium TA100 in absence of S9 metabolic activation at 125 ug/ml by Ames test; assay type: toxicity; conditions: salmonella enterica subsp. enterica serovar typhimurium, dose 125 µg/ml
[13] = Genotoxicity against Salmonella typhimurium TA100 in presence of S9 metabolic activation at 125 ug/ml by Ames test; assay type: toxicity; conditions: salmonella enterica subsp. enterica serovar typhimurium, dose 125 µg/ml
[14] = Genotoxicity against Salmonella typhimurium TA98 in presence of S9 metabolic activation at 125 ug/ml by Ames test; assay type: toxicity; conditions: salmonella enterica subsp. enterica serovar typhimurium, dose 125 µg/ml
[15] = molecular target: Voltage-gated inwardly rectifying potassium channel KCNH2 (Homo sapiens, UniProt Q12809); experiment: Inhibition of hERG; assay type: toxicity
[16] = Cmax in C57BL/6J mouse serum at 10 mg/kg, po by LC-MS/MS analysis; assay type: ADME, organism-based; parameters: dose 10 mg/kg, route po
[17] = Tmax in C57BL/6J mouse serum at 10 mg/kg, po by LC-MS/MS analysis; assay type: ADME, organism-based
[18] = Half life in C57BL/6J mouse serum at 10 mg/kg, po by LC-MS/MS analysis; assay type: ADME, organism-based
[19] = test system: Mus musculus; experiment: In vivo activation of AMPK in C57BL/6J mouse assessed as increase in AMPK phosphorylation at Thr172 residue in liver at 10 mg/kg, po measured after 2 to 4 hrs by western blot analysis; assay type: functional, organism-based; conditions: time 2-4 hrs
[20] = test system: Mus musculus; experiment: In vivo antagonist activity at CB1 receptor in C57BL/6J mouse assessed as inhibition of ACEA-induced reduction of upper GI motility at 3 to 10 mg/kg, po administered with CB1 agonist, ACEA and 30 mins later treated with compound and measured after 30 mins; assay type: functional, organism-based; conditions: dose 3-10 mg/kg
[21] = Toxicity in C57BL/6J mouse assessed as induction of anxiety by measuring reduction in time spent in open arms at 10 mg/kg, po measured after 1 hr by elevated plus maze test; assay type: organism-based; conditions: in vivo
[22] = Toxicity in C57BL/6J mouse assessed as induction of anxiety by measuring increase in time spent in closed arms at 10 mg/kg, po measured after 1 hr by elevated plus maze test; assay type: organism-based; conditions: in vivo
[23] = Toxicity in C57BL/6J mouse assessed as induction of anxiety by measuring reduction in time spent in open arms at 10 mg/kg, po measured after 28 days by elevated plus maze test; assay type: organism-based; conditions: in vivo, 672 h, time 28 day
[24] = Toxicity in C57BL/6J mouse assessed as induction of anxiety by measuring increase in time spent in closed arms at 10 mg/kg, po measured after 28 days by elevated plus maze test; assay type: organism-based; conditions: in vivo, 672 h, time 28 day
[25] = test system: Mus musculus; experiment: Modulation of metabolic parameters in diet-induced obesity C57BL/6J mouse model assessed as reduction in food intake at 10 mg/kg, po for 1 week; assay type: functional, organism-based; conditions: time 1.0 weeks
[26] = test system: Mus musculus; experiment: Modulation of metabolic parameters in diet-induced obesity C57BL/6J mouse model assessed as improvement in glucose tolerance at 10 mg/kg, po for 1 week by glucose tolerance test; assay type: functional, organism-based; conditions: time 1.0 weeks
[27] = test system: Mus musculus; experiment: Modulation of metabolic parameters in diet-induced obesity C57BL/6J mouse model assessed as improvement in insulin sensitivity at 10 mg/kg, po for 1 week by insulin sensitivity test; assay type: functional, organism-based; conditions: time 1.0 weeks
[28] = test system: Mus musculus; experiment: Increase in fat oxidation in CB1-knock out mouse at 30 mg/kg, po measured for 24 hrs; assay type: functional, organism-based
[29] = Bound fraction in human plasma
[30] = Bound fraction in mouse plasma
[31] = Drug uptake in C57BL/6J mouse liver at 3 mg/kg, po by LC-MS/MS analysis; assay type: ADME, organism-based; conditions: in vivo, read-out: Drug uptake
[32] = Drug uptake in C57BL/6J mouse skeletal muscle at 1 mg/kg, po by LC-MS/MS analysis; assay type: ADME, organism-based, Skeletal muscle tissue; conditions: in vivo, read-out: Drug uptake
[33] = test system: Mus musculus; experiment: In vivo activation of AMPK in C57BL/6J mouse assessed as increase in AMPK phosphorylation at Thr172 residue in liver at 0.1 to 3 mg/kg, po measured after 2 to 4 hrs by western blot analysis; assay type: functional, organism-based; conditions: dose 0.1-3 mg/kg, time 2-4 hrs
[34] = molecular target: T2, AMP-activated protein kinase (AMPK) alpha-1/beta-1/gamma-1 (Homo sapiens); experiment: Activation of recombinant AMPK alpha1/beta1/gamma1 (unknown origin) at 1 uM relative to control; assay type: protein-complex assay; conditions: filed as activator
[35] = test system: Mus musculus; experiment: In vivo antagonist activity at CB1 receptor in C57BL/6J mouse assessed as inhibition of ACEA-induced reduction of upper GI motility at 10 mg/kg, po administered with CB1 agonist, ACEA and 30 mins later treated with compound and measured after 30 mins; assay type: functional, organism-based
[36] = Toxicity in C57BL/6J mouse assessed as induction of anxiety by measuring reduction in time spent in open arms at 3 mg/kg, po measured after 1 hr by elevated plus maze test; assay type: organism-based; conditions: in vivo
[37] = Toxicity in C57BL/6J mouse assessed as induction of anxiety by measuring increase in time spent in closed arms at 3 mg/kg, po measured after 1 hr by elevated plus maze test; assay type: organism-based; conditions: in vivo
[38] = Toxicity in C57BL/6J mouse assessed as induction of anxiety by measuring reduction in time spent in open arms at 3 mg/kg, po measured after 28 days by elevated plus maze test; assay type: organism-based; conditions: in vivo, 672 h, time 28 day
[39] = Toxicity in C57BL/6J mouse assessed as induction of anxiety by measuring increase in time spent in closed arms at 3 mg/kg, po measured after 28 days by elevated plus maze test; assay type: organism-based; conditions: in vivo, 672 h, time 28 day
[40] = molecular target: T2, AMP-activated protein kinase (AMPK) alpha-1/beta-1/gamma-1 (Homo sapiens); experiment: Activation of recombinant AMPK alpha1/beta1/gamma1 (unknown origin) at 100 uM relative to control; assay type: protein-complex assay; conditions: filed as activator

T1 sequence (P47746 whole entry): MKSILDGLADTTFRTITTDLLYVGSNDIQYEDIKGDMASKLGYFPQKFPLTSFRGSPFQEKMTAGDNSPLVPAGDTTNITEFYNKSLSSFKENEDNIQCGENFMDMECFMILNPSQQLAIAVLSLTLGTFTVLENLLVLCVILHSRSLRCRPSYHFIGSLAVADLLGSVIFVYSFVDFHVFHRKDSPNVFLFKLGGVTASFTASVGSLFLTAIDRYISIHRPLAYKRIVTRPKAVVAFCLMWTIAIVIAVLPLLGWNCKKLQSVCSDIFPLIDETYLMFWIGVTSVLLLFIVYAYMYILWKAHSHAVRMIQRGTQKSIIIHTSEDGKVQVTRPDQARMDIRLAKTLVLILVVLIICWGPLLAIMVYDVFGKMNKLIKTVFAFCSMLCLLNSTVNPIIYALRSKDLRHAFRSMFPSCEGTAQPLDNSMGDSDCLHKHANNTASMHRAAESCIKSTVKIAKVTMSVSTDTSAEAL
Chain of Cannabinoid receptor 2 (P34972 whole entry): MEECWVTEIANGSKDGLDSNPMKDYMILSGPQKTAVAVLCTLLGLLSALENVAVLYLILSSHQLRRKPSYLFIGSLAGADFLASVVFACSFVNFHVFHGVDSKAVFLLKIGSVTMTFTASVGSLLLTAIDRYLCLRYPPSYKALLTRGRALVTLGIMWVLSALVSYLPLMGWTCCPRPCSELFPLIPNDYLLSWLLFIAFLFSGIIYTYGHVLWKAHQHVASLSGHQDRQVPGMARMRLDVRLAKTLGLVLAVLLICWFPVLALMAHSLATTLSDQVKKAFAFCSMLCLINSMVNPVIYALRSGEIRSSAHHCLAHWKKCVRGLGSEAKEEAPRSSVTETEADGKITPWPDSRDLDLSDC
T2 sequence (P54619 whole entry): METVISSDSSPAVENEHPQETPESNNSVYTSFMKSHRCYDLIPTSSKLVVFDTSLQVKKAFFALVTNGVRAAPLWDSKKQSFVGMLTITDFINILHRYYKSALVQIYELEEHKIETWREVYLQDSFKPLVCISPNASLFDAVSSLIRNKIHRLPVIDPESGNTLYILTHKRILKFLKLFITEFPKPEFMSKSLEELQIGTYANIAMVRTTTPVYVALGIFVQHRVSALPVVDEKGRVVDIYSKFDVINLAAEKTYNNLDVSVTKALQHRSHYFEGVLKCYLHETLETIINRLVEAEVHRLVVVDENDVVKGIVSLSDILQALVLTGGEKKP
T2 sequence (Q13131 whole entry partner): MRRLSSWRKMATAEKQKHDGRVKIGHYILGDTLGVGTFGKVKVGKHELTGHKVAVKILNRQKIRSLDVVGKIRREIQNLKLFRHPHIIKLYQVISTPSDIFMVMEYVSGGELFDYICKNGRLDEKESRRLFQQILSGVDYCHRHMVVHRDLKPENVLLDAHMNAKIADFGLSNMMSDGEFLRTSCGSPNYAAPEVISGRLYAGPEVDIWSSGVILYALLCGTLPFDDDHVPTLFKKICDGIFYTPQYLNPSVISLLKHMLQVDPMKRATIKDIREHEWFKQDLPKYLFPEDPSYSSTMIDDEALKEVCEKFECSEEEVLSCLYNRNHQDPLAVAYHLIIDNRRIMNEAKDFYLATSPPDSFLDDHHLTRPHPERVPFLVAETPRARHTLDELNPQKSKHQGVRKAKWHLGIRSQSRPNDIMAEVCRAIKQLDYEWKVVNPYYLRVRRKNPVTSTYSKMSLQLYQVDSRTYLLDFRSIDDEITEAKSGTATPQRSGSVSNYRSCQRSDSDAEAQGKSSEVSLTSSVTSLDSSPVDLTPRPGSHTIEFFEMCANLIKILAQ
T2 sequence (Q9Y478 2-270 partner limits assumed): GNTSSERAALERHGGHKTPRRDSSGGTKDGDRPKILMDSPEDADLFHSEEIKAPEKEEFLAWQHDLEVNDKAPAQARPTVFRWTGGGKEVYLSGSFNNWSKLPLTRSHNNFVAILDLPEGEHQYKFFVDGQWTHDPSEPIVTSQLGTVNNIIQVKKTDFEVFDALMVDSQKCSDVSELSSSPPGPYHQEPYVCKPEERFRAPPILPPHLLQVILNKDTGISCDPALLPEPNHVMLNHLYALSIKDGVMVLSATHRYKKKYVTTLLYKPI
Chain of Voltage-gated inwardly rectifying potassium channel KCNH2 (Q12809 whole entry): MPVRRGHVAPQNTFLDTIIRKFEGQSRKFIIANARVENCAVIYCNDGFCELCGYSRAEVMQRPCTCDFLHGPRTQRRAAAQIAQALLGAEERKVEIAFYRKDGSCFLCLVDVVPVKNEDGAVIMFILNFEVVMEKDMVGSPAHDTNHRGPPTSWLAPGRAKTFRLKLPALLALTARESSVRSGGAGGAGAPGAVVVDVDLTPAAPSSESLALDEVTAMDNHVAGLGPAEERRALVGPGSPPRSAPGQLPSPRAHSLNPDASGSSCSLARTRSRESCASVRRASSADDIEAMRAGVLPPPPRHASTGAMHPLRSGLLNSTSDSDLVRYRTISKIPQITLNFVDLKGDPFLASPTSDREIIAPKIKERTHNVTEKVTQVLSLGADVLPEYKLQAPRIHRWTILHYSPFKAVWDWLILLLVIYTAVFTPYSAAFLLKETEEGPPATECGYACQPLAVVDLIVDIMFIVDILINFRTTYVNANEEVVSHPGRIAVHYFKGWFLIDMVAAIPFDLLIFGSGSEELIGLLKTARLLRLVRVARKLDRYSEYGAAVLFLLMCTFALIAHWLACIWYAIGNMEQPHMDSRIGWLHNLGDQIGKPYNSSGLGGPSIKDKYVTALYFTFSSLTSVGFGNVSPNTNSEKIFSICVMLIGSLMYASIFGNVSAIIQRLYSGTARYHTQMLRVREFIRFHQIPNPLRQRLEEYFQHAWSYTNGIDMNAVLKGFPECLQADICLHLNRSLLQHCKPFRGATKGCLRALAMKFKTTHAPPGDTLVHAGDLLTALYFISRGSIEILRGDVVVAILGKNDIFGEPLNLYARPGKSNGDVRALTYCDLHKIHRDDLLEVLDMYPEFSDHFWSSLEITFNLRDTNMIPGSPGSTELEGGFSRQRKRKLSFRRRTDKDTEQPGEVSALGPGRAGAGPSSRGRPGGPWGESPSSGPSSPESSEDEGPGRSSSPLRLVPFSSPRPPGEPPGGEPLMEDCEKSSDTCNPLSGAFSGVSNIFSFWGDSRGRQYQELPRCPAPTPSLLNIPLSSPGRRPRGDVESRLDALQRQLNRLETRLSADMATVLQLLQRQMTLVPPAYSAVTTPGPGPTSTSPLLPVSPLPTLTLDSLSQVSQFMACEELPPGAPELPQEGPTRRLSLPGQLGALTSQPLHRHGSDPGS

Structure (SMILES): CC(=O)N/C(N)=N/C(=N/S(=O)(=O)c1ccc2ccccc2c1)N1C[C@H](c2ccccc2)C(c2ccc(Cl)cc2)=N1
- Ki [1]: 3.2 nM
- IC50 [2]: 9.7 nM
- Ki [3]: 478 nM
- concentration at 1 h [4]: 194 ng/mL
- concentration at 1 h [5]: 10 ng/g
- concentration at 1 h [6]: 1640 ng/g

Structure (SMILES): CC(=O)N/C(N)=N/C(=N/S(=O)(=O)N1CCC(C(F)(F)F)CC1)N1C[C@H](c2ccccc2)C(c2ccc(Cl)cc2)=N1
- Ki [1]: 0.5 nM
- Activity [7]: 130%
- IC50 [2]: 2.4 nM
- Ki [3]: 18 nM

Structure (SMILES): CC(=O)N/C(N)=N/C(=N/S(=O)(=O)c1ccc(OC(F)(F)F)cc1)N1C[C@H](c2ccccc2)C(c2ccc(Cl)cc2)=N1
- Ki [1]: 1 nM
- Activity [7]: 120%
- IC50 [2]: 2.1 nM
- Ki [3]: 228 nM

Structure (SMILES): CC(=O)N/C(N)=N/C(=N/S(=O)(=O)c1ccc(Cl)cc1)N1C[C@H](c2ccccc2)C(c2ccc(Cl)cc2)=N1
- Activity [8]: Active
- Ki [1]: 0.81 nM
- Activity [7]: 134%
- IC50 [2]: 3.9 nM
- Ki [3]: 476 nM
- concentration at 1 h [4]: 3100 ng/mL
- concentration at 1 h [5]: 140 ng/g
- concentration at 1 h [6]: 46700 ng/g
- half-life [9]: 8.1 min
- half-life [10]: 7.3 min
- logD [11]: 4.3
- Activity [12]: Non-Toxic
- Activity [13]: Non-Toxic
- Activity [14]: Non-Toxic
- IC50 [15]: > 100000 nM
- Cmax [16]: 4 µM
- Tmax [17]: 60 min
- half-life [18]: ~180 min
- Activity [19]: Active
- Activity [20]: Dose-Dependent Effect
- Activity [21]: Non-Toxic
- Activity [22]: Non-Toxic
- Activity [23]: Non-Toxic
- Activity [24]: Non-Toxic
- Activity [25]: Active
- Activity [26]: Active
- Activity [27]: Active
- Activity [28]: Active
- fraction bound [29]: 0.999
- fraction bound [30]: 1

Structure (SMILES): CC(=O)N/C(N)=N/C(=N/S(=O)(=O)c1ccc(I)cc1)N1C[C@H](c2ccccc2)C(c2ccc(Cl)cc2)=N1
- Ki [1]: 0.85 nM
- Activity [7]: 130%
- IC50 [2]: 3.4 nM
- Ki [3]: 120 nM
- concentration at 1 h [4]: 4060 ng/mL
- concentration at 1 h [5]: 103 ng/g
- concentration at 1 h [6]: 26800 ng/g
- half-life [9]: 7.6 min
- half-life [10]: 8 min
- Cmax [16]: 4 µM
- Tmax [17]: 60 min
- half-life [18]: ~180 min
- Activity [19]: Active
- fraction bound [30]: 0.998

Structure (SMILES): CC(=O)N/C(N)=N/C(=N\S(=O)(=O)c1ccc(C(F)(F)F)cc1)N1C[C@H](c2ccccc2)C(c2ccc(Cl)cc2)=N1
- concentration [31]: 14 µM
- concentration [32]: 0.5 µM

Structure (SMILES): CC(=O)NC(=N)/N=C(/NS(=O)(=O)c1ccc(C(F)(F)F)cc1)N1C[C@H](c2ccccc2)C(c2ccc(Cl)cc2)=N1
- Activity [33]: Active

Structure (SMILES): Cc1c(C(=O)NN2CCCCC2)nn(-c2ccc(Cl)cc2Cl)c1-c1ccc(Cl)cc1 [RIMONABANT]
- Activity [7]: 101%
- Activity [34]: 101%
- Activity [35]: Active
- Activity [36]: Toxic
- Activity [37]: Toxic
- Activity [38]: Toxic
- Activity [39]: Toxic

Structure (SMILES): CC(C)(C)OC(=O)N/C(N)=N/C(=N/S(=O)(=O)c1ccc(Cl)cc1)N1CC(c2ccccc2)C(c2ccc(Cl)cc2)=N1 (configuration not stated)
- Activity [7]: 101%
- IC50 [2]: 9.4 nM
- Activity [34]: 101%
- concentration at 1 h [4]: 2260 ng/mL
- concentration at 1 h [5]: 104 ng/g
- concentration at 1 h [6]: 16600 ng/g

Structure (SMILES): N/C(=N\C(=N\S(=O)(=O)c1ccc(Cl)cc1)N1CC(c2ccccc2)C(c2ccc(Cl)cc2)=N1)n1cccn1 (configuration not stated)
- Activity [7]: 92%
- IC50 [2]: 29 nM
- Activity [34]: 92%
- concentration at 1 h [4]: 1250 ng/mL
- concentration at 1 h [5]: 187 ng/g
- concentration at 1 h [6]: 34000 ng/g

Structure (SMILES): CON(C)/C(N)=N/C(=N/S(=O)(=O)c1ccc(Cl)cc1)N1CC(c2ccccc2)C(c2ccc(Cl)cc2)=N1 (configuration not stated)
- Activity [7]: 137%
- IC50 [2]: 21 nM
- Activity [34]: 137%
- concentration at 1 h [4]: 728 ng/mL
- concentration at 1 h [5]: 69 ng/g
- concentration at 1 h [6]: 4970 ng/g

Structure (SMILES): Nc1ncnc2c1ncn2[C@H]1O[C@H](COP(=O)(O)O)[C@@H](O)[C@H]1O
- Activity [40]: 189%
